In BindingDB's records for doi:10.1021/jm00154a024 (1986):

Test: The compound was tested for the inhibition of alanine racemase from Pseudomonas aeruginosa

## CCC(=N)P(=O)(O)O
  Ki: 8.5 mM
